Measured values published in paper PMC3781056, “New Pyrazolopyrimidine Inhibitors of Protein Kinase D as Potent Anticancer Agents for Prostate Cancer Cells” (PLoS ONE, 2013).
Like-named read-outs stand apart in the source and are kept apart here.

Experiments:
[1] = tested on: PC3 prostate cancer cells; test: Cell proliferation assay (cell counts); type: cell-based; conditions: 30 µM, starting at day 2 to day 6
Procedure: PKD has emerged as a promising therapeutic target for cancer. […] Cell proliferation was determined by treating the cells at 30 µM concentration of agent, and then cell number was counted for six consecutive days in the presence and absence of inhibitor.
PC3 cells were plated in triplicates in 24-well plates. Cells were allowed to attach overnight. […] Cells were counted daily for a total of 5 days. Fresh media and inhibitor were added every 2 days. The means of triplicate determinations were plotted over time. The experiment was repeated twice and results from one representative experiment are shown. […] PC3 cells were seeded into 96-well plates (3000 cells/well) and were then incubated in media containing 0.3–100 µM inhibitors for 72 h. MTT solution was added to each well and incubated for 4 h. Optical density was read at 570 nm to determine cell viability. The IC50 was determined as the mean of two independent experiments for each compound. C. […] Cell cycle distribution was determined by flow cytometry after propidium iodide labeling of fixed cells. Statistical significance was determined by unpaired t-test and is indicated. **, p<0.01; ***, p<0.001. […]
Proliferation of PC3 cells was measured by counting the number of viable cells upon trypan blue staining as previously described. […] The labeled cells were analyzed using a FACSCalibur flow cytometer (BD Biosciences).

[2] = target: T1, Recombinant human PKD3 (Homo sapiens, UniProt O94806); test: Radiometric PKD kinase assay, 10-point IC50; type: biochemical
T1 sequence (O94806 1-890): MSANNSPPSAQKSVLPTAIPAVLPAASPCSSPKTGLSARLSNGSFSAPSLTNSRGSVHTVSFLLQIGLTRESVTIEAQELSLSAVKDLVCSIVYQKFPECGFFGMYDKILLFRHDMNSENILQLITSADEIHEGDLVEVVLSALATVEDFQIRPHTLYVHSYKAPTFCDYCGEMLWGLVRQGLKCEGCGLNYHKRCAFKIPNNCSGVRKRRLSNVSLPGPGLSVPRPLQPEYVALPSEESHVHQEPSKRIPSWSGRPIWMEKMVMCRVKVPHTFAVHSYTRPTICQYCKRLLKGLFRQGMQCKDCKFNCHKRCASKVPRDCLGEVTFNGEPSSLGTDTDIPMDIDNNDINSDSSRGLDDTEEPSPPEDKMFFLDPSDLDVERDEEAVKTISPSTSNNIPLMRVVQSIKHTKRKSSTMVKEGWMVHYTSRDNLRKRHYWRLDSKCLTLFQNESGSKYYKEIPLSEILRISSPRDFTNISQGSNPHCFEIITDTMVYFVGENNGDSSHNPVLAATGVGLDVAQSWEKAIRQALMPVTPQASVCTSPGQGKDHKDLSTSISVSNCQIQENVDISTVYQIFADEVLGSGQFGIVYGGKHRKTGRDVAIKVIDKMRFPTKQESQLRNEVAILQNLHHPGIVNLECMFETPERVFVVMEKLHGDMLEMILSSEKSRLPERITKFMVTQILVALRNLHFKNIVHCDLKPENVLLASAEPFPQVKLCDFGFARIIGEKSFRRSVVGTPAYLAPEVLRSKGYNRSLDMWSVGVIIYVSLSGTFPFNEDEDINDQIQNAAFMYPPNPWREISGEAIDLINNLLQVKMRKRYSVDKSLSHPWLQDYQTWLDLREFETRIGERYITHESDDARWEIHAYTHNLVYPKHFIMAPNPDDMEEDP
Procedure: Recombinant human PKD1, 2, or 3 proteins were incubated in a mixture containing a peptide substrate derived from a PKD substrate, HDAC-5, and 10 different concentrations of the two compounds.
The IC50 values were calculated as the mean ±SEM of at least three independent experiments with triplicate determinations at each concentration of drug in each experiment. The data were plotted as a function of drug concentration and a representative graph is shown.

[3] = target: T2, PKD1 (Homo sapiens, UniProt Q15139); test: In vitro radiometric PKD1 screening assay at 1 µM; type: biochemical
T2 construct: GST; purchased Enzo Life sciences (Farmingdale, NY)
T2 sequence (Q15139 1-912): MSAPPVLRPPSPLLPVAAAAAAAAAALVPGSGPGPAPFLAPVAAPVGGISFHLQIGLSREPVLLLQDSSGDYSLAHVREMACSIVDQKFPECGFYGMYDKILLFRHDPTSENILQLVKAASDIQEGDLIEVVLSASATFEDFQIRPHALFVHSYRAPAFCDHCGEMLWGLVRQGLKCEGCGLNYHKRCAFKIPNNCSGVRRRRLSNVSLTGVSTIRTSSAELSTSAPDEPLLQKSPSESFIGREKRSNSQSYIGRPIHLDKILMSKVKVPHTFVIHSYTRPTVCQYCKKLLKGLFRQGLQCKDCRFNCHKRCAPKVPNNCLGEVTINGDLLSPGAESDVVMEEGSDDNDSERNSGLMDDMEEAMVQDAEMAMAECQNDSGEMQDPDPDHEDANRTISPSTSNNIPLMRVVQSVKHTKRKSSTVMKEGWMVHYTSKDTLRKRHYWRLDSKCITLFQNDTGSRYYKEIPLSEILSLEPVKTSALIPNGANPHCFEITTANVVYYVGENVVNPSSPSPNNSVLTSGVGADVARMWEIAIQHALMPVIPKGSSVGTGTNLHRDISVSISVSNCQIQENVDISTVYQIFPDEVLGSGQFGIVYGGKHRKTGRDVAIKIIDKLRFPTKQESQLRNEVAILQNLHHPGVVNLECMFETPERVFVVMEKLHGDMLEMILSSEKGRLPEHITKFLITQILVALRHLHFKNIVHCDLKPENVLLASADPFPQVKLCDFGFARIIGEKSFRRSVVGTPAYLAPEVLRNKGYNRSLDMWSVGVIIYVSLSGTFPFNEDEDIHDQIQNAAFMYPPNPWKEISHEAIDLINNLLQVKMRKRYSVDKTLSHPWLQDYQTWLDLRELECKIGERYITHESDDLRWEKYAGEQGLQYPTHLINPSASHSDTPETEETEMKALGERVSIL
Procedure: Phosphorylation of HDAC5 was detected in a kinase reaction having 1 µCi [γ-^32P] […] The reaction was incubated at 30°C for 10 minutes and 25 µL of the reaction was spotted on Whatman P81 filter paper. The filter paper was washed 3 times in 0.5% phosphoric acid, air dried and counted using Beckman LS6500 multipurpose scintillation counter. Percent PKD1 inhibition was graphed using GraphPad Prism software 5.0.

IC50 ([2]; mean ± SEM, read-out: IC50 PKD3) | IC50 ([2]; value in the figure, representative graph, read-out: PKD3 IC50) | % PKD1 Inhibition ([3]; 1 µM, targeted kinase inhibitor library screen, relative to DMSO) | Compound | effect on PC3 cell proliferation (cell counts) [1] | IC50 [2] | IC50 ([2]; PKD3 IC50, value printed in the figure, representative graph) | inhibition at 1 µM ([3]; read-out: % PKD1 Inhibition) | inhibition at 1 µM ([3]; read-out: inhibition of PKD1 activity)
 |  |  | CC(C)(C)n1nc(-c2cccc3ccccc23)c2c(N)ncnc21 [Compound 1-NA-PP1, 1-(t-Butyl)-3-(naphthalen-1-yl)-1H-pyrazolo[3,4-d]pyrimidin-4-amine] | drastic growth arrest | 109 nM | 104 nM | 77% | 80%
99.7 nM | 97 nM | 67% | O=C(c1ccc(Nc2nccc(-c3cc4ccccc4s3)n2)cc1)N1CCC(N2CCCC2)CC1 [IKK-16, reference compound] |  |  |  |  | 
